PMC3596387, “Tripolin A, a Novel Small-Molecule Inhibitor of Aurora A Kinase, Reveals New Regulation of HURP's Distribution on Microtubules” (PLoS ONE, 2013)
Where two headings read alike, the source gives them in different places.

Experiments:
Format in all cases: biochemical
[1] = target: T1, EGFR (Homo sapiens, UniProt P00533); experiment: Z'LYTE kinase selectivity assay
T1 construct: selectivity panel
Description: Z'LYTE kinase selectivity assay on EGFR

[2] = target: T2, Aurora A (Homo sapiens, UniProt O14965); experiment: in vitro kinase assay (Z'LYTE Ser/Thr […] peptide; Easylite luminescence ATP detection)
T2 construct: gene AURKA; full length in pET21d, 6xHis tag (Aurora A-6xHis), E. coli, Ni-NTA purified
T2 sequence (O14965 1-403): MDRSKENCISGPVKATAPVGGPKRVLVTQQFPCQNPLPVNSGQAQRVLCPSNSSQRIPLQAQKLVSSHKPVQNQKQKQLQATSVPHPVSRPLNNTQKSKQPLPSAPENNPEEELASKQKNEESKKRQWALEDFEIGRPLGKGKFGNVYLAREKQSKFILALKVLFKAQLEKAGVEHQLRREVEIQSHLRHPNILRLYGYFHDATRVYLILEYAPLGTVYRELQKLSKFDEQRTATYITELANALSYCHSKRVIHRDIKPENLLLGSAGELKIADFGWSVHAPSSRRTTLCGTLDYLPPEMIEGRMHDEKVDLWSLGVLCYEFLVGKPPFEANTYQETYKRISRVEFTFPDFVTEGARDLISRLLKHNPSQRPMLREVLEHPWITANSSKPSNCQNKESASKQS

[3] = target: T3, KDR (Homo sapiens, UniProt P35968); experiment: Z'LYTE kinase selectivity assay
T3 construct: selectivity panel
Description: Z'LYTE kinase selectivity assay on KDR

[4] = target: T4, Aurora B (Homo sapiens, UniProt Q96GD4); experiment: Z'LYTE kinase selectivity assay
T4 construct: gene AURKB; selectivity panel
Description: Z'LYTE kinase selectivity assay on Aurora B

[5] = target: T5, FGFR; experiment: Z'LYTE kinase selectivity assay
T5 construct: gene FGFR1; selectivity panel
Description: Z'LYTE kinase selectivity assay on FGFR

[6] = target: T6, IGF1R (Homo sapiens, UniProt P08069); experiment: Z'LYTE kinase selectivity assay
T6 construct: selectivity panel
Description: Z'LYTE kinase selectivity assay on IGF1R

T4 sequence (Q96GD4 whole entry): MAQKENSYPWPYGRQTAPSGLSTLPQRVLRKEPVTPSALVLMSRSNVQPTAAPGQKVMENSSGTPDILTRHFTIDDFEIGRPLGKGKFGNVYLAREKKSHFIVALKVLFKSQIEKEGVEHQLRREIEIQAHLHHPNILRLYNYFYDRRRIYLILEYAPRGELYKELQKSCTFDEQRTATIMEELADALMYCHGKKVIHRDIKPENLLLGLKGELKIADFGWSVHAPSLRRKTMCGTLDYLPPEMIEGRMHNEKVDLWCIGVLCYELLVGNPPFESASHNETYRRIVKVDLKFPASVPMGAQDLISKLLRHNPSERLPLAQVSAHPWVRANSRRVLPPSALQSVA
T6 sequence (P08069 31-736): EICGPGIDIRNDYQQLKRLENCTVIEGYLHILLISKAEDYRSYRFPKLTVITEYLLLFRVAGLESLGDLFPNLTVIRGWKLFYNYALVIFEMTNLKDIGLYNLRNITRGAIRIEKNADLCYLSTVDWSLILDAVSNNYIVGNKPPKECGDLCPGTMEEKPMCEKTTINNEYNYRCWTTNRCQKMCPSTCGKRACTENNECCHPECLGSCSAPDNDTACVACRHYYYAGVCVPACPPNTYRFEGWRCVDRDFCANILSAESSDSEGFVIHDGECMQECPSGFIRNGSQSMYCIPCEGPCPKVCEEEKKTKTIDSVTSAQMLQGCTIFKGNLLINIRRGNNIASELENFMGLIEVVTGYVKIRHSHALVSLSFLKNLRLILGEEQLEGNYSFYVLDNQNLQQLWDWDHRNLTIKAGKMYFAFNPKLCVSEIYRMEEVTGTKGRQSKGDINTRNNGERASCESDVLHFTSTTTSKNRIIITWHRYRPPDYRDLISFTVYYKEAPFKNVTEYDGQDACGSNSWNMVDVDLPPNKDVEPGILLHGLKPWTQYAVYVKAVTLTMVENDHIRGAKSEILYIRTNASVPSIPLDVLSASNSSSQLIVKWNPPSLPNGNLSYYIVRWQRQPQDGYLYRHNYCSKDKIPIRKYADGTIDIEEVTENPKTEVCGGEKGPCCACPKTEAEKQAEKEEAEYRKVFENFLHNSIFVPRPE
T6 sequence (P08069 741-1367): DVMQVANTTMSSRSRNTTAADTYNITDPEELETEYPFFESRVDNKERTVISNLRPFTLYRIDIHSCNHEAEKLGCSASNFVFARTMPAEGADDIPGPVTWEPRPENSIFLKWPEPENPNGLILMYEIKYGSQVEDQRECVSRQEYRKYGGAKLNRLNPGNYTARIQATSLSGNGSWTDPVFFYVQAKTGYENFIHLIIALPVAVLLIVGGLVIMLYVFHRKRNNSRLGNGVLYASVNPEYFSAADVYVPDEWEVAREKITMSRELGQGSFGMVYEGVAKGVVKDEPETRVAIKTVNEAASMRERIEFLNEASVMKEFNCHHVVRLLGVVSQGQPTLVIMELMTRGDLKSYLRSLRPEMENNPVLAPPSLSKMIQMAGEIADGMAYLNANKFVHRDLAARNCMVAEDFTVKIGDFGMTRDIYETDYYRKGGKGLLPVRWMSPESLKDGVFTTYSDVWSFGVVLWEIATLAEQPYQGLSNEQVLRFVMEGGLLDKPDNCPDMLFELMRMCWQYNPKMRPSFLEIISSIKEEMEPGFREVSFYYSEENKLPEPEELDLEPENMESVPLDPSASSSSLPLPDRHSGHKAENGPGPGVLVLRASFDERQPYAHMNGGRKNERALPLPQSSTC
T3 sequence (P35968 20-1356): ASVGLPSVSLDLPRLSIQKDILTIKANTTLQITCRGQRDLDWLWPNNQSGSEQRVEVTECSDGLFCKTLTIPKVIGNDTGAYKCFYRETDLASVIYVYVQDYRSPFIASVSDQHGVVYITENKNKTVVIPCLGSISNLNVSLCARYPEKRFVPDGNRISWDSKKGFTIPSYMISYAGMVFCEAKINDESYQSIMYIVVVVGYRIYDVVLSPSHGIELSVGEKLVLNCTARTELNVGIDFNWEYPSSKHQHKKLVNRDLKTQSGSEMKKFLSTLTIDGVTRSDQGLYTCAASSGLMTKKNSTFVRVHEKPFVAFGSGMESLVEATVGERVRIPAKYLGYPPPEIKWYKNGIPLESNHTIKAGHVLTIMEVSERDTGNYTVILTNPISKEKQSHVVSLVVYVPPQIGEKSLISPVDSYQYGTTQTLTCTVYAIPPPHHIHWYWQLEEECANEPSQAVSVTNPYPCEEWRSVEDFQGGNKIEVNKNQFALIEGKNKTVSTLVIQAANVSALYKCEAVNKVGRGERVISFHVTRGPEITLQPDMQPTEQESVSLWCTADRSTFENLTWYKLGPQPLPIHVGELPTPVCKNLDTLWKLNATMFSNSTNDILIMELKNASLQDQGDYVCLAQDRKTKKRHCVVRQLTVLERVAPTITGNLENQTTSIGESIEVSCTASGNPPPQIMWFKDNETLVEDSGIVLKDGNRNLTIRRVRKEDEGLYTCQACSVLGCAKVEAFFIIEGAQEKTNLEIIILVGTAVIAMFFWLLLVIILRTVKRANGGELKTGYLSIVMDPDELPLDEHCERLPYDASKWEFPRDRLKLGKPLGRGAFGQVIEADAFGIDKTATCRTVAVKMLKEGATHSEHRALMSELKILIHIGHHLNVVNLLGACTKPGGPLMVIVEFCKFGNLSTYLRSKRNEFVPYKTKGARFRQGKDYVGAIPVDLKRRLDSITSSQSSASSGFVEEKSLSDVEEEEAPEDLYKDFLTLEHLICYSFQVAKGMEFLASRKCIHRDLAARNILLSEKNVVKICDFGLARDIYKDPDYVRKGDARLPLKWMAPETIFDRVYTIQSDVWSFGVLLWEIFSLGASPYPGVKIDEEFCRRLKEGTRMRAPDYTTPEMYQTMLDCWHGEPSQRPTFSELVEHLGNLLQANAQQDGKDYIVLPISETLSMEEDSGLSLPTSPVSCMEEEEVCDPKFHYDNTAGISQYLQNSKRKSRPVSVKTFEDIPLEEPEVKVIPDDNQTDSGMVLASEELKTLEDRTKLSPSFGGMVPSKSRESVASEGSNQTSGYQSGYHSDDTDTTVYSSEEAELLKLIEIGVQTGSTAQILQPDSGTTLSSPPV
T1 sequence (P00533 25-1210): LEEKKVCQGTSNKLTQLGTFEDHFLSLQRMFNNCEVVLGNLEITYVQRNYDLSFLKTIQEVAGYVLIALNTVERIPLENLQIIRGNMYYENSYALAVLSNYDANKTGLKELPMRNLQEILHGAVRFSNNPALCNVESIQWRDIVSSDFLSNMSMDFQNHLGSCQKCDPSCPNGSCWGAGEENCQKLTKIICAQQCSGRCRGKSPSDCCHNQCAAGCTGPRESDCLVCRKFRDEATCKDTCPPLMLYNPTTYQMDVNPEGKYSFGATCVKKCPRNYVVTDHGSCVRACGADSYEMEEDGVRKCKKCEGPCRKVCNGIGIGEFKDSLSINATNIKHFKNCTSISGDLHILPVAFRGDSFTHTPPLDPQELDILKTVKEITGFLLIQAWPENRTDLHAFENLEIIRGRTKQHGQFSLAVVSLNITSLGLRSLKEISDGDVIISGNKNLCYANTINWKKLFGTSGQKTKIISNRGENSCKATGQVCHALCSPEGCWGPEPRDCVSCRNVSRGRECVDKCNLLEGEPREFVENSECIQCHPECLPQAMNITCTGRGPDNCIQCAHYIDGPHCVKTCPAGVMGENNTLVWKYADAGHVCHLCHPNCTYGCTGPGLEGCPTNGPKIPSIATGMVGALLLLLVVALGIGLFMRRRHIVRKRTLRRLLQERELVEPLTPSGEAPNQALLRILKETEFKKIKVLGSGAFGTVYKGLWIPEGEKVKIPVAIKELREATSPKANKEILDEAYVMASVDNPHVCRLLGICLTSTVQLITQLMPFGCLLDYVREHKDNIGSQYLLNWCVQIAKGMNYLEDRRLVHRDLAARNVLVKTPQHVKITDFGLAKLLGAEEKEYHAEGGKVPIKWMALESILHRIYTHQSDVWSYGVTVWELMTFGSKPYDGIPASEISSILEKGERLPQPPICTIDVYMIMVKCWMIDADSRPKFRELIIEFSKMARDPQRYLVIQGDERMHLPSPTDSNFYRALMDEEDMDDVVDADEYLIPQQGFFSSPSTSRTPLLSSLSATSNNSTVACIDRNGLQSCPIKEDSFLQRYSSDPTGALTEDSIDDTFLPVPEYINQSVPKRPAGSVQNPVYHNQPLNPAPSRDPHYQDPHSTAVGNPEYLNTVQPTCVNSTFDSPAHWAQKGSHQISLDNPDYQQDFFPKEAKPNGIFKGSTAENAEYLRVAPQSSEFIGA

Row | IC50 ([1]; read-out: Tripolin A) | IC50 ([2]; read-out: Tripolin A) | IC50 ([3]; read-out: Tripolin A) | IC50 ([4]; read-out: Tripolin A) | IC50 ([5]; read-out: Tripolin A) | IC50 ([6]; read-out: Tripolin A) | SMILES | IC50 ([1]; read-out: Tripolin B) | IC50 ([2]; read-out: Tripolin B) | IC50 ([3]; read-out: Tripolin B) | IC50 ([4]; read-out: Tripolin B) | IC50 ([5]; read-out: Tripolin B) | IC50 ([6]; read-out: Tripolin B)
1 | – | – | – | – | – | – | O=C1Nc2ccccc2C1=Cc1cnc[nH]1 [Tripolin B, 3-(3H-Imidazol-4-ylmethylene)-1,3-dihydro-indol-2-one] | 71.7 µM | 2.5 µM | 6.5 µM | 6 µM | 38 µM | 13.2 µM
2 | 11 µM | 1.5 µM | 17.9 µM | 7 µM | 33.4 µM | 14.9 µM | O=C1Nc2ccccc2C1=Cc1cc(O)ccc1O [Tripolin A, 3-(2,5-Dihydroxy-benzylidene)-1,3-dihydro-indol-1-one] | – | – | – | – | – | –
